# Measurements from patent US20070128217A1 (priority 2003, published 2007).
# How the values were obtained:
# [1] = system: antibodies in sera from SARS patients (sera 1a, 1b, 2, 6, 37, 62, London, SARS-yellow, SARS-green); type: binding, human; design: Binding of serum 6 to linear peptides of protein X1 of SARS-CoV Urbani / Binding of serum 37 to linear peptides of protein X1 of SARS-CoV Urbani / Binding of serum 6 to looped/cyclic peptide (PEPSCAN-ELISA) / Binding of serum 37 to looped/cyclic peptide (PEPSCAN-ELISA) / Binding of serum 37 to looped/cyclic peptides of protein X1 of SARS-CoV Urbani / Binding of serum 6 to linear peptides of protein X2 / Binding of serum 37 to linear peptides of protein X2 / Binding of serum 37 to looped/cyclic peptides of protein X2 of SARS-CoV Urbani / Binding of serum 6 to linear peptides of protein M of SARS-CoV Urbani / Binding of serum 37 to linear peptides of protein M of SARS-CoV Urbani / Binding of serum 6 to looped/cyclic peptides of protein M of SARS-CoV Urbani / Binding of serum 37 to looped/cyclic peptides of protein M of SARS-CoV Urbani / Binding of serum 6 to linear peptides of protein X3 of SARS-CoV Urbani / Binding of serum 37 to linear peptides of protein X3 of SARS-CoV Urbani / Binding of serum 37 to looped/cyclic peptides of protein X3 of SARS-CoV Urbani / Binding of serum 6 to linear peptides of protein X4 of SARS-CoV Urbani / Binding of serum 37 to linear peptides of protein X4 of SARS-CoV Urbani / Binding of serum 37 to looped/cyclic peptides of protein X4 of SARS-CoV Urbani / Binding of serum 6 to linear peptides of protein X5 of SARS-CoV Urbani / Binding of serum 37 to linear peptides of protein X5 of SARS-CoV Urbani / Binding of serum 37 to looped/cyclic peptides of protein X5 of SARS-CoV Urbani / Binding of serum 6 to linear peptides of protein N of SARS-CoV Urbani / Binding of serum 37 to linear peptides of protein N of SARS-CoV Urbani / Binding of serum 6 to linear peptide (PEPSCAN-ELISA) / Binding of serum 1a to looped/cyclic peptides of protein N of SARS-CoV Urbani / Binding of serum 1b to looped/cyclic peptides of protein N of SARS-CoV Urbani / Binding of serum 2 to looped/cyclic peptides of protein N of SARS-CoV Urbani / Binding of serum 6 to looped/cyclic peptides of protein N of SARS-CoV Urbani / Binding of serum 37 to looped/cyclic peptides of protein N of SARS-CoV Urbani / Binding of serum 62 to looped/cyclic peptides of protein N of SARS-CoV Urbani / Binding of serum London to looped/cyclic peptides of protein N of SARS-CoV Urbani / Binding of serum SARS-green to looped/cyclic peptides of protein N of SARS-CoV Urbani: unit not given here
# [2] = system: recombinant human anti-SARS-CoV antibody 03-018; type: binding; design: Binding of antibody 03-018 to linear peptides of the N protein of SARS-CoV Urbani / Binding of antibody 03-018 to looped/cyclic peptides of the N protein of SARS-CoV Urbani: unit not given here
# [3] = system: control sera (pooled serum of ten healthy LUMC hospital workers; commercial negative donor pooled serum from the Dutch bloodbank); type: binding, human; design: Binding of Control serum LUMC to linear peptides / Binding of Control serum Blood-bank to linear peptides / Binding of Control serum LUMC to looped peptides / Binding of Control Serum Blood-Bank to Looped peptides / Binding of Control serum LUMC to linear peptides of the protein M of SARS-CoV Urbani / Binding of Control serum Blood-bank to linear peptides of the protein M of SARS-CoV Urbani / Binding of Control serum LUMC to looped peptides of the protein M of SARS-CoV Urbani / Binding of Control Serum Blood-Bank to Looped peptides of the protein M of SARS-CoV Urbani: unit not given here
# [4] = system: rabbit serum obtained by immunizing a rabbit with the SARS-CoV strain Frankfurt 1; type: binding; design: Binding of a rabbit serum to linear peptides / Binding of a rabbit serum to looped peptides / Rabbit serum linear peptides / Rabbit serum looped peptides / Binding of a rabbit serum to linear peptides of protein N of SARS-CoV Urbani (Rabbit serum linear peptides) / Binding of a rabbit serum to looped/cyclic peptides of protein N of SARS-CoV Urbani (Rabbit serum looped peptides): unit not given here
sequence,measurement,setting,value
GTGPEASLPYGANKE,Binding of serum 1a to linear peptides of protein N of SARS-CoV Urbani,[1],0.3
same,Binding of serum 1a to looped/cyclic peptides of protein N of SARS-CoV Urbani,[1],0.2
same,Binding of serum 1b to linear peptides of protein N of SARS-CoV Urbani,[1],0.1
same,Binding of serum 1b to looped/cyclic peptides of protein N of SARS-CoV Urbani,[1],0.2
same,Binding of serum 2 to linear peptides of protein N of SARS-CoV Urbani,[1],0.3
same,Binding of serum 2 to looped/cyclic peptides of protein N of SARS-CoV Urbani,[1],0.2
same,Binding of serum 6 to linear peptides of protein N of SARS-CoV Urbani,[1],0.2
same,Binding of serum 6 to looped/cyclic peptides of protein N of SARS-CoV Urbani,[1],0.1
same,Binding of serum 37 to linear peptides of protein N of SARS-CoV Urbani,[1],0.9
same,Binding of serum 37 to looped/cyclic peptides of protein N of SARS-CoV Urbani,[1],0.4
same,Binding of serum 62 to linear peptides of protein N of SARS-CoV Urbani,[1],0.9
same,Binding of serum 62 to looped/cyclic peptides of protein N of SARS-CoV Urbani,[1],0.3
same,Binding of serum London to linear peptides of protein N of SARS-CoV Urbani,[1],0.7
same,Binding of serum London to looped/cyclic peptides of protein N of SARS-CoV Urbani,[1],0.3
same,Binding of serum SARS-green to linear peptides of protein N of SARS-CoV Urbani,[1],0.7
same,Binding of serum SARS-green to looped/cyclic peptides of protein N of SARS-CoV Urbani,[1],0.2
same,Binding of serum SARS-yellow to linear peptides of protein N of SARS-CoV Urbani,[1],0.6
same,Binding of serum SARS-yellow to looped/cyclic peptides of protein N of SARS-CoV Urbani,[1],0.2
same,Binding of antibody 03-018 to linear peptides of the N protein of SARS-CoV Urbani,[2],0.1
same,Binding of antibody 03-018 to looped/cyclic peptides of the N protein of SARS-CoV Urbani,[2],0.2
same,Binding of Control Serum Blood-Bank to Looped peptides,[3],0.4
same,Binding of Control serum Blood-bank to linear peptides,[3],0.7
same,Binding of Control serum LUMC to linear peptides,[3],0.8
same,Binding of Control serum LUMC to looped peptides,[3],0.4
same,Binding of a rabbit serum to linear peptides of protein N of SARS-CoV Urbani (Rabbit serum linear peptides),[4],0.1
same,Binding of a rabbit serum to looped/cyclic peptides of protein N of SARS-CoV Urbani (Rabbit serum looped peptides),[4],0.3
GTRNPNNNAATVLQL,Binding of serum 1a to linear peptides of protein N of SARS-CoV Urbani,[1],0.3
same,Binding of serum 1a to looped/cyclic peptides of protein N of SARS-CoV Urbani,[1],0.4
same,Binding of serum 1b to linear peptides of protein N of SARS-CoV Urbani,[1],0.1
same,Binding of serum 1b to looped/cyclic peptides of protein N of SARS-CoV Urbani,[1],0.3
same,Binding of serum 2 to linear peptides of protein N of SARS-CoV Urbani,[1],0.3
same,Binding of serum 2 to looped/cyclic peptides of protein N of SARS-CoV Urbani,[1],0.7
same,Binding of serum 6 to linear peptides of protein N of SARS-CoV Urbani,[1],0.2
same,Binding of serum 6 to looped/cyclic peptides of protein N of SARS-CoV Urbani,[1],0.4
same,Binding of serum 37 to linear peptides of protein N of SARS-CoV Urbani,[1],0.7
same,Binding of serum 37 to looped/cyclic peptides of protein N of SARS-CoV Urbani,[1],0.9
same,Binding of serum 62 to linear peptides of protein N of SARS-CoV Urbani,[1],0.7
same,Binding of serum 62 to looped/cyclic peptides of protein N of SARS-CoV Urbani,[1],0.9
same,Binding of serum London to linear peptides of protein N of SARS-CoV Urbani,[1],0.5
same,Binding of serum London to looped/cyclic peptides of protein N of SARS-CoV Urbani,[1],0.5
same,Binding of serum SARS-green to linear peptides of protein N of SARS-CoV Urbani,[1],0.3
same,Binding of serum SARS-green to looped/cyclic peptides of protein N of SARS-CoV Urbani,[1],0.6
same,Binding of serum SARS-yellow to linear peptides of protein N of SARS-CoV Urbani,[1],0.6
same,Binding of serum SARS-yellow to looped/cyclic peptides of protein N of SARS-CoV Urbani,[1],0.5
same,Binding of antibody 03-018 to linear peptides of the N protein of SARS-CoV Urbani,[2],0.1
same,Binding of antibody 03-018 to looped/cyclic peptides of the N protein of SARS-CoV Urbani,[2],0.3
same,Binding of Control Serum Blood-Bank to Looped peptides,[3],1.0
same,Binding of Control serum Blood-bank to linear peptides,[3],0.8
same,Binding of Control serum LUMC to linear peptides,[3],0.8
same,Binding of Control serum LUMC to looped peptides,[3],0.8
same,Binding of a rabbit serum to linear peptides of protein N of SARS-CoV Urbani (Rabbit serum linear peptides),[4],0.1
same,Binding of a rabbit serum to looped/cyclic peptides of protein N of SARS-CoV Urbani (Rabbit serum looped peptides),[4],0.6
HGAIKLDDKDPQFKD,Binding of serum 1a to linear peptides of protein N of SARS-CoV Urbani,[1],0.2
same,Binding of serum 1a to looped/cyclic peptides of protein N of SARS-CoV Urbani,[1],0.2
same,Binding of serum 1b to linear peptides of protein N of SARS-CoV Urbani,[1],0.1
same,Binding of serum 1b to looped/cyclic peptides of protein N of SARS-CoV Urbani,[1],0.1
same,Binding of serum 2 to linear peptides of protein N of SARS-CoV Urbani,[1],0.2
same,Binding of serum 2 to looped/cyclic peptides of protein N of SARS-CoV Urbani,[1],0.2
same,Binding of serum 6 to linear peptides of protein N of SARS-CoV Urbani,[1],0.1
same,Binding of serum 6 to looped/cyclic peptides of protein N of SARS-CoV Urbani,[1],0.1
same,Binding of serum 37 to linear peptides of protein N of SARS-CoV Urbani,[1],0.8
same,Binding of serum 37 to looped/cyclic peptides of protein N of SARS-CoV Urbani,[1],0.5
same,Binding of serum 62 to linear peptides of protein N of SARS-CoV Urbani,[1],0.7
same,Binding of serum 62 to looped/cyclic peptides of protein N of SARS-CoV Urbani,[1],0.3
same,Binding of serum London to linear peptides of protein N of SARS-CoV Urbani,[1],0.6
same,Binding of serum London to looped/cyclic peptides of protein N of SARS-CoV Urbani,[1],0.3
same,Binding of serum SARS-green to linear peptides of protein N of SARS-CoV Urbani,[1],0.4
same,Binding of serum SARS-green to looped/cyclic peptides of protein N of SARS-CoV Urbani,[1],0.3
same,Binding of serum SARS-yellow to linear peptides of protein N of SARS-CoV Urbani,[1],0.6
same,Binding of serum SARS-yellow to looped/cyclic peptides of protein N of SARS-CoV Urbani,[1],0.3
same,Binding of antibody 03-018 to linear peptides of the N protein of SARS-CoV Urbani,[2],0.1
same,Binding of antibody 03-018 to looped/cyclic peptides of the N protein of SARS-CoV Urbani,[2],0.2
same,Control Serum Blood-Bank Looped peptides,[3],0.4
same,Control serum Blood-bank linear peptides,[3],0.6
same,Control serum LUMC linear peptides,[3],0.6
same,Control serum LUMC looped peptides,[3],0.4
same,Binding of a rabbit serum to linear peptides of protein N of SARS-CoV Urbani (Rabbit serum linear peptides),[4],0.1
same,Binding of a rabbit serum to looped/cyclic peptides of protein N of SARS-CoV Urbani (Rabbit serum looped peptides),[4],0.3
HGKEELRFPRGQGVP,Binding of serum 1a to linear peptides of protein N of SARS-CoV Urbani,[1],0.2
same,Binding of serum 1a to looped/cyclic peptides of protein N of SARS-CoV Urbani,[1],0.3
same,Binding of serum 1b to linear peptides of protein N of SARS-CoV Urbani,[1],0.2
same,Binding of serum 1b to looped/cyclic peptides of protein N of SARS-CoV Urbani,[1],0.2
same,Binding of serum 2 to linear peptides of protein N of SARS-CoV Urbani,[1],0.3
same,Binding of serum 2 to looped/cyclic peptides of protein N of SARS-CoV Urbani,[1],0.4
same,Binding of serum 6 to linear peptides of protein N of SARS-CoV Urbani,[1],0.1
same,Binding of serum 6 to looped/cyclic peptides of protein N of SARS-CoV Urbani,[1],0.2
same,Binding of serum 37 to linear peptides of protein N of SARS-CoV Urbani,[1],0.7
same,Binding of serum 37 to looped/cyclic peptides of protein N of SARS-CoV Urbani,[1],0.5
same,Binding of serum 62 to linear peptides of protein N of SARS-CoV Urbani,[1],0.7
same,Binding of serum 62 to looped/cyclic peptides of protein N of SARS-CoV Urbani,[1],0.3
same,Binding of serum London to linear peptides of protein N of SARS-CoV Urbani,[1],0.5
same,Binding of serum London to looped/cyclic peptides of protein N of SARS-CoV Urbani,[1],0.4
same,Binding of serum SARS-green to linear peptides of protein N of SARS-CoV Urbani,[1],0.5
same,Binding of serum SARS-green to looped/cyclic peptides of protein N of SARS-CoV Urbani,[1],0.2
same,Binding of serum SARS-yellow to linear peptides of protein N of SARS-CoV Urbani,[1],0.7
same,Binding of serum SARS-yellow to looped/cyclic peptides of protein N of SARS-CoV Urbani,[1],0.5
same,Binding of antibody 03-018 to linear peptides of the N protein of SARS-CoV Urbani,[2],0.1
same,Binding of antibody 03-018 to looped/cyclic peptides of the N protein of SARS-CoV Urbani,[2],0.2
same,Binding of Control Serum Blood-Bank to Looped peptides,[3],0.5
same,Binding of Control serum Blood-bank to linear peptides,[3],0.8
same,Binding of Control serum LUMC to linear peptides,[3],0.6
same,Binding of Control serum LUMC to looped peptides,[3],0.5
same,Binding of a rabbit serum to linear peptides of protein N of SARS-CoV Urbani (Rabbit serum linear peptides),[4],0.1
same,Binding of a rabbit serum to looped/cyclic peptides of protein N of SARS-CoV Urbani (Rabbit serum looped peptides),[4],0.3
